Where a name gives a salt, the structure may show the parent alone.
Molecular target: MCH receptor (Homo sapiens, UniProt Q99705)
Assay: High throughput functional screening FLIPR/FDSS6000 (intracellular Ca2+ evoked by MCH)
Assay type: cell-based
Conditions: FLIPR/FDSS, antagonist activity vs 50 nM MCH; class by percent of control at 10^−7 M or IC50; table after the classification; read-out: class
Method in brief: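 For antagonist testing, compound-treated cells (30 min, 37 °C) were stimulated with 50 nM MCH and intracellular Ca2+ followed by Fluo4 fluorescence on FLIPR/FDSS6000. Receptor was a constitutively active, non-endogenous MCH receptor; dye loading 4 μM Fluo4-AM, 1 h, 37 °C.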

Row | Structure (SMILES) | IC50
1 | Cc1cc(N[C@H]2CC[C@@H](NC(=O)c3cccnc3O)CC2)nc2ccccc12 [Example 3173, 2-Hydroxy-N-[cis-4-(4-methyl-quinolin-2-ylamino)-cyclohexyl]-nicotinamide hydrochloride] | > 200 nM
2 | COC(=O)c1cccc(C(=O)N[C@H]2CC[C@@H](Nc3cc(C)c4ccccc4n3)CC2)c1 [Example 3174, N-[cis-4-(4-Methylquinolin-2-ylamino)-cyclohexyl]-isophthalamic acid-methyl ester hydrochloride] | < 50 nM
3 | Cc1cc(N[C@H]2CC[C@@H](NC(=O)c3ccc(Cl)nc3)CC2)nc2ccccc12 [Example 3175, 6-Chloro-N-[cis-4-(4-methyl-quinolin-2-ylamino)-cyclohexyl]-nicotinamide hydrochloride] | < 50 nM
4 | Cc1cc(N[C@H]2CC[C@@H](NC(=O)c3ccc(N(C)C)nc3)CC2)nc2ccccc12 [Example 3176, 6-Dimethylamino-N-[cis-4-(4-methyl-quinolin-2-ylamino)-cyclohexyl]-nicotinamide dihydrochloride] | 50 to 200 nM
5 | Cc1cc(N[C@H]2CC[C@@H](NC(=O)c3cccc(CO)c3)CC2)nc2ccccc12 [Example 3177, 3-Hydroxymethyl-N-[cis-4-(4-methyl-quinolin-2-ylamino)-cyclohexyl]-benzamide hydrochloride] | 50 to 200 nM
6 | Cc1cc(N[C@H]2CC[C@@H](NC(=O)c3cccc(C(N)=O)c3)CC2)nc2ccccc12 [Example 3178, N-[cis-4-(4-Methylquinolin-2-ylamino)-cyclohexyl]-isophthalamide hydrochloride] | 50 to 200 nM
7 | Cc1cc(N[C@H]2CC[C@@H](NC(=O)c3cc(F)cc(Cl)c3)CC2)nc2ccccc12 [Example 3179, 3-Chloro-5-fluoro-N-[cis-4-(4-methyl-quinolin-2-ylamino)-cyclohexyl]-benzamide hydrochloride] | < 50 nM
8 | Cc1cc(N[C@H]2CC[C@@H](NC(=O)c3cc(F)c(F)c(F)c3)CC2)nc2ccccc12 [Example 3180, 3,4,5-Trifluoro-N-[cis-4-(4-methyl-quinolin-2-ylamino)-cyclohexyl]-benzamide hydrochloride] | < 50 nM
9 | Cc1cc(N[C@H]2CC[C@@H](NC(=O)c3ccccn3)CC2)nc2ccccc12 [Example 3181, Pyridine-2-carboxylic acid [cis-4-(4-methyl-quinolin-2-ylamino)-cyclohexyl]-amide hydrochloride] | 50 to 200 nM
10 | Cc1cc(N[C@H]2CC[C@@H](NC(=O)c3cccnc3)CC2)nc2ccccc12 [Example 3182, N-[cis-4-(4-Methyl-quinolin-2-ylamino)-cyclohexyl]-nicotinamide hydrochloride] | > 200 nM
11 | Cc1cc(N[C@H]2CC[C@@H](NC(=O)c3ccncc3)CC2)nc2ccccc12 [Example 3183, N-[cis-4-(4-Methyl-quinolin-2-ylamino)-cyclohexyl]-isonicotinamide hydrochloride] | > 200 nM
12 | Cc1cc(N[C@H]2CC[C@@H](NC(=O)c3cc(Cl)ccn3)CC2)nc2ccccc12 [Example 3184, 4-Chloro-pyridine-2-carboxylic acid [cis-4-(4-methyl-quinolin-2-ylamino)-cyclohexyl]-amide hydrochloride] | 50 to 200 nM
13 | Cc1cc(N[C@H]2CC[C@@H](NC(=O)c3cncc(Br)c3)CC2)nc2ccccc12 [Example 3185, 5-Bromo-N-[cis-4-(4-methyl-quinolin-2-ylamino)-cyclohexyl]-nicotinamide dihydrochloride] | < 50 nM
14 | Cc1cc(N[C@H]2CC[C@@H](NC(=O)c3ccc(C(F)(F)F)nc3)CC2)nc2ccccc12 [Example 3186, N-[cis-4-(4-Methyl-quinolin-2-ylamino)-cyclohexyl]-6-trifluoromethyl-nicotinamide hydrochloride] | 50 to 200 nM
15 | Cc1cc(N[C@H]2CC[C@@H](NC(=O)c3ccc(-n4ccnc4)nc3)CC2)nc2ccccc12 [Example 3187, 6-Imidazol-1-yl-N-[cis-4-(4-methyl-quinolin-2-ylamino)-cyclohexyl]-nicotinamide dihydrochloride] | > 200 nM
16 | CN(C)c1cc(N[C@H]2CC[C@@H](NC(=O)c3ccc(F)c(F)c3)CC2)nc2ccccc12 [Example 3188, N-[cis-4-(4-Dimethylamino-quinolin-2-ylamino)-cyclohexyl]-3,4-difluoro-benzamide hydrochloride] | < 50 nM
17 | CN(C)c1cc(N[C@H]2CC[C@@H](NC(=O)c3csc([N+](=O)[O-])c3)CC2)nc2ccccc12 [Example 3189, 5-Nitro-thiophene-3-carboxylic acid [cis-4-(4-dimethylamino-quinolin-2-ylamino)-cyclohexyl]-amide hydrochloride] | < 50 nM

Row | Structure (SMILES) | IC50
18 | CN(C)c1cc(N[C@H]2CC[C@@H](CNC(=O)c3ccc(F)c(F)c3)CC2)nc2ccccc12 [Example 3190, N-[cis-4-(4-Dimethylamino-quinolin-2-ylamino)-cyclohexylmethyl]-3,4-difluoro-benzamide hydrochloride] | 50 to 200 nM
19 | CN(C)c1cc(N[C@H]2CC[C@@H](CNC(=O)Nc3cccc(Cl)c3Cl)CC2)nc2ccccc12 [Example 3191, 1-(2,3-Dichloro-phenyl)-3-[cis-4-(4-dimethylamino-quinolin-2-ylamino)-cyclohexylmethyl]-urea hydrochloride] | 50 to 200 nM
20 | CN(C)c1nc(N[C@H]2CC[C@@H](NC(=O)c3ccc(F)c(F)c3)CC2)nc2c1CCCC2 [Example 3192, N-[cis-4-(4-dimethylamino-5,6,7,8-tetrahydro-quinazolin-2-ylamino)-cyclohexyl]-3,4-difluoro-benzamide hydrochloride] | < 50 nM
21 | CN(C)c1nc(N[C@H]2CC[C@@H](NC(=O)c3csc([N+](=O)[O-])c3)CC2)nc2c1CCCC2 [Example 3193, 5-Nitro-thiophene-3-carboxylic acid [cis-4-(4-dimethylamino-5,6,7,8-tetrahydro-quinazolin-2-ylamino)-cyclohexyl]-amide hydrochloride] | < 50 nM
22 | CN(C)c1nc(N[C@H]2CC[C@@H](NC(=O)c3cc([N+](=O)[O-])cn3C)CC2)nc2c1CCCC2 [Example 3194, 1-Methyl-4-nitro-1H-pyrrole-2-carboxylic acid [cis-4-(4-dimethylamino-5,6,7,8-tetrahydro-quinazolin-2-ylamino)-cyclohexyl]-amide hydrochloride] | < 50 nM
23 | CN(C)c1nc(N[C@H]2CC[C@@H](CNC(=O)c3ccc(F)c(F)c3)CC2)nc2c1CCCC2 [Example 3195, N-[cis-4-(4-Dimethylamino-5,6,7,8-tetrahydro-quinazolin-2-ylamino)-cyclohexylmethyl]-3,4-difluoro-benzamide hydrochloride] | 50 to 200 nM
24 | CN(C)c1nc(N[C@H]2CC[C@@H](CNC(=O)Nc3cccc(Cl)c3Cl)CC2)nc2c1CCCC2 [Example 3196, 1-(2,3-Dichloro-phenyl)-3-[cis-4-(4-dimethylamino-5,6,7,8-tetrahydro-quinazolin-2-ylamino)-cyclohexylmethyl]-urea hydrochloride] | 50 to 200 nM
25 | CN(C)c1ccnc(N[C@H]2CC[C@@H](NC(=O)c3ccc(F)c(F)c3)CC2)n1 [Example 3197, N-[cis-4-(4-Dimethylamino-pyrimidin-2-ylamino)-cyclohexyl]-3,4-difluoro-benzamide hydrochloride] | 50 to 200 nM
26 | CN(C)c1ccnc(N[C@H]2CC[C@@H](NC(=O)c3csc([N+](=O)[O-])c3)CC2)n1 [Example 3198, 5-Nitro-thiophene-3-carboxylic acid [cis-4-(4-dimethylamino-pyrimidine-2-ylamino)-cyclohexyl]-amide hydrochloride] | < 50 nM
27 | CN(C)c1ccnc(N[C@H]2CC[C@@H](NC(=O)c3ccc(-c4ccc(Cl)cc4)o3)CC2)n1 [Example 3199, 5-(4-Chloro-phenyl)-furan-2-carboxylic acid [cis-4-(4-dimethylamino-pyrimidin-2-ylamino)-cyclohexyl]-amide hydrochloride] | < 50 nM
28 | CN(C)c1ccnc(N[C@H]2CC[C@@H](NC(=O)c3ccc(-c4ccc(F)cc4)cc3)CC2)n1 [Example 3200, 4′-Fluoro-biphenyl-4-carboxylic acid [cis-4-(4-dimethylamino-pyrimidin-2-ylamino)-cyclohexyl]-amide hydrochloride] | > 200 nM
29 | CN(C)c1ccnc(N[C@H]2CC[C@@H](NC(=O)c3cccnc3Oc3ccc(F)cc3)CC2)n1 [Example 3201, N-[cis-4-(4-Dimethylamino-pyrimidin-2-ylamino)-cyclohexyl]-2-(4-fluoro-phenoxy)-nicotinamide hydrochloride] | < 50 nM
30 | CCN(CC(=O)N[C@H]1CC[C@@H](Nc2nccc(N(C)C)n2)CC1)c1ccccc1 [Example 3202, N-[cis-4-(4-Dimethylamino-pyrimidin-2-ylamino)-cyclohexyl]-C-(ethyl-phenyl-amino)-acetamide dihydrochloride] | < 50 nM
31 | CCN(CC(=O)N[C@H]1CC[C@@H](Nc2nccc(N(C)C)n2)CC1)c1ccc(Cl)cc1 [Example 3203, C-[cis-(4-Chloro-phenyl)-ethyl-amino]-N-[4-(4-dimethylamino-pyrimidin-2-ylamino)-cyclohexyl]-acetamide dihydrochloride] | < 50 nM
32 | CN(C)c1ccnc(N[C@H]2CC[C@@H](NC(=O)Cc3ccc(F)c(F)c3)CC2)n1 [Example 3204, 2-(3,4-Difluoro-phenyl)-N-[cis-4-(4-dimethylamino-pyrimidin-2-ylamino)-cyclohexyl]-acetamide hydrochloride] | 50 to 200 nM
33 | CN(C)c1ccnc(N[C@H]2CC[C@@H](NC(=O)c3cc(F)cc(F)c3)CC2)n1 [Example 3205, N-[cis-4-(4-Dimethylamino-pyrimidin-2-ylamino)-cyclohexyl]-3,5-difluoro-benzamide hydrochloride] | 50 to 200 nM
34 | CN(C)c1ccnc(N[C@H]2CC[C@@H](NC(=O)c3ccc(F)c(Cl)c3)CC2)n1 [Example 3206, 3-Chloro-N-[cis-4-(4-dimethylamino-pyrimidin-2-ylamino)-cyclohexyl]-4-fluoro-benzamide hydrochloride] | < 50 nM
